Reference: patent US20170020838A1, “TREATMENT FOR RESPIRATORY DISEASE” (MUCOKINETICA LIMITED, priority 2014, published 2017)

Assays:
[1] = tested on: ciliary transport of pig airway mucus secretions on the ex vivo pig trachea; test: Ciliary transport of mucus secretions (tracheal mucus velocity) on ex vivo normal pig trachea; settings: for first time point where increased ciliary transport is observed (class summary): Classes 2 and 3, after application of the treatment; for first time point with increased ciliary transport compared to BSS controls: applied 10 min in BSS: 10^−4 M amiloride, +50 mM-NaCl, 100 mosM-mannitol, 100 mosM-sodium gluconate, combinations with 10^−5M Rx; for first time point with increased ciliary transport compared to BSS controls / time of maximum transport speed following initiation of treatment: 0.1 mM UTP; for onset and duration profile of increased ciliary transport of secretions: normal pig trachea, single 10 min treatment; for class of ciliary transport enhancer: three classes of ENaC regulating substances
Method: The lumen of each trachea was cleaned by gentle irrigation with BSS. Tracheas were opened longitudinally with scissors along the posterior aspect and mounted with the posterior aspect upwards in a moist air-tight box. An aliquot of pig airway mucus approximately 3 mm diameter was placed on the mucosal surface close to the distal end of each trachea. Tracheal mucus velocity (TMV mm/min) was measured by recording the distance moved, towards the laryngeal end of the trachea, in a given time. At the start of the study three measurements of TMV were made for each trachea to establish a baseline rate for the trachea. Solutions were then pipetted onto the luminal mucosal surface of tracheas for 10 min; BSS control tracheas (open circles; n=6); 10^−4 M amiloride in BSS (closed squares; n=6). Excess solution was then tipped off the mucosal surface and measurement of TMV repeated. TMV results at each time point are expressed as % of the baseline TMV, ciliary transport index (mean±SD).
(§1) Pig tracheas (from larynx to carina) from normal wild type animals were obtained from a local abattoir or Veterinary University. Transgenic CF piglets were produced as described by Klymiuk et al. 2012, and tracheas were obtained at a Veterinary University. The lumen of each trachea was cleaned by gentle irrigation with BSS. Tracheas were opened longitudinally with scissors along the posterior aspect and mounted with the posterior aspect upwards in a moist air-tight box. An aliquot of pig airway mucus approximately 3 mm diameter was placed on the mucosal surface close to the distal end of each trachea. Tracheal mucus velocity (TMV mm/min) was measured by recording the distance moved, towards the laryngeal end of the trachea, in a given time. At the start of a study three measurements of TMV were made for each trachea to establish a baseline rate for the trachea. Solutions were then pipetted onto the luminal mucosal surface of tracheas for 10 min. Then excess solution was tipped off the mucosal surface and measurement of TMV repeated. TMV results at each time point are expressed as % of the baseline TMV, ciliary transport index (mean±SD).

[2] = tested on: ciliary transport of pig airway mucus secretions on the ex vivo trachea of transgenic CF piglets; test: Ciliary transport of mucus secretions on ex vivo trachea of transgenic CF piglets; parameters: speed of ciliary transport at the first three time points (25, 40 and 55 min), day 1: dose or concentration left out as unconfirmed
Method: FIG. 13 Study of the effects of 6-amidino-2-napthyl 4-guanidinobenzoate in BSS, and a combination of hyperosmotic saline and 6-amidino-2-napthyl 4-guanidinobenzoate in BSS on ciliary transport of pig airway mucus secretions on the ex vivo trachea of transgenic CF piglets. Transgenic CF piglets were produced as described by Klymiuk et al. 2012, and tracheas obtained at a Veterinary University. Study methods were otherwise as described in FIG. 10. Ciliary transport index (mean) was measured over two days with a second treatment period at the start of the second day.
as §1

kidney sodium channel = settings: cortical collecting duct of the rabbit kidney; Muto et al. 1993; cited from earlier work
ENaC = settings: human airway epithelial cells; Rasgado et al. 2009 & 2013; cited from earlier work

| SMILES | first time point where increased ciliary transport is observed (class summary) [1] | first time point with increased ciliary transport compared to BSS controls [1] | onset and duration profile of increased ciliary transport of secretions [1] | class of ciliary transport enhancer [1] | ciliary transport speed at the first two time points (25 and 40 min) compared to BSS controls ([1]; 10^−5M in BSS) | ciliary transport at 24 h following exposure to the treatment (class summary) ([1]; Class 3) | dose of maximum increase in ciliary transport ([1]; at 3 h 40 min, tested 10^−9 M to 10^−5 M) | speed of ciliary transport at the first three time points (25, 40 and 55 min), day 1 ([2]; in BSS, 10 min) | speed of ciliary transport at the first time point (25 min), day 2 ([2]; second 10 min treatment with 10^−5 M at 14 h 10 min) | onset and duration profile of increased ciliary transport, both days ([2]; transgenic CF pig tracheas) | action on the kidney sodium channel (kidney sodium channel) | effect of hyperosmotic concentrations on ENaC activity (ENaC) | time of maximum transport speed following initiation of treatment ([1]; 10^−4 M amiloride) | difference from BSS control tracheas at 40 min, 55 min and 1 h 10 min ([1]; 10^−4 M amiloride) | duration of stimulation of ciliary transport ([1]; 10^−4 M amiloride) | time by which transport speed returned to control levels ([1]; 10^−4 M amiloride) | stimulated ciliary transport through to (last time point) ([1]; 10^−4 M amiloride in BSS applied 10 min) | onset of increased ciliary transport of secretions (class summary) ([1]; Class 1) | return to control transport rate (class summary) ([1]; Class 1) | peak increase in the rate of ciliary transport (class summary) ([1]; Classes 1 to 3 of ciliary transport enhancers) |
| --- | --- | --- | --- | --- | --- | --- | --- | --- | --- | --- | --- | --- | --- | --- | --- | --- | --- | --- | --- | --- |
| O=C([O-])[C@H](O)[C@@H](O)[C@H](O)[C@H](O)CO.[Na+] [hyperosmotic sodium gluconate, sodium gluconate] | 25 min | 25 min | medium-onset medium duration | Medium onset—medium duration |  |  |  |  |  |  |  |  |  |  |  |  |  |  |  |  |
| N=C(N)Nc1ccc(C(=O)Oc2ccc3cc(C(=N)N)ccc3c2)cc1 [6-amidino-2-napthyl 4-guanidinobenzoate] | 55 min |  | slow-onset long duration | Slow onset—long duration | no increase in speed | continues to exceed control transport rate | 10^−6 M | no increase in speed | No increase in speed | slow-onset long duration | weak, short acting inhibitor |  |  |  |  |  |  |  |  |  |
| OC[C@@H](O)[C@@H](O)[C@H](O)[C@H](O)CO [hyperosmotic mannitol, mannitol] | 25 min | 25 min | medium-onset medium duration | Medium onset—medium duration |  |  |  |  |  |  |  | reduced ENaC activity |  |  |  |  |  |  |  |  |
| O=c1ccn([C@@H]2O[C@H](COP(=O)(O)OP(=O)(O)OP(=O)(O)O)[C@@H](O)[C@H]2O)c(=O)[nH]1 [UTP, uridine 5′-triphosphate] | 25 min | 25 min | medium-onset medium duration | Medium onset—medium duration |  |  |  |  |  |  |  |  | 55 min |  |  |  |  |  |  |  |
| N=C(N)NC(=O)c1nc(Cl)c(N)nc1N [amiloride] |  | 10 min | rapid onset and of short duration | Rapid onset—short duration |  |  |  |  |  |  |  |  | 25 min | no significant difference | less than 1 h | ≤ 40 min | 35 min | immediate | ≤ 40 min | 30% |
